In patent publication US9550796B2, “Pyrrolopyrrolone derivatives and their use as BET inhibitors” (NOVARTIS AG, priority 2013, dated 2017):

Experiments:
BRD4 = BRD4 (Homo sapiens (Human), UniProt O60885); assay: TR-FRET in-vitro binding assay for BRD4; settings: 45 nM His-Brd4(44-477), acetyl-histone H4 (AcK 5, 8, 12, 16) peptide
Method in brief: (§1)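 TR-FRET binding read after 35 min incubation at 30° C. Compounds dispensed from 90% DMSO solutions and tested at 8 concentrations in a 13.55 μL total reaction volume.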

MV-4-11 = assay: Cell growth inhibition assay (CellTiter-Glo), MV-4-11; type: cell-based, human; settings: MV-4-11 cells, 4 days; for GI50: Homo sapiens, MV4-11, 96 h, half-maximal growth inhibition; for MV-4-11 TGI: total growth inhibition
Method in brief: (§2)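 Cells were exposed 4 days at 37 °C, 5% CO2 to 3-fold serial dilutions starting at 10 μM (0.1% DMSO vehicle). Viability was measured as ATP by CellTiter-Glo luminescence, corrected for background and a day-0 plate. IC50 and TGI were derived by four-parameter fitting.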

BRD2 = BRD2 (Homo sapiens (Human), UniProt P25440); assay: TR-FRET in-vitro binding assay for BRD2; settings: 45 nM His-Brd2(60-472), acetyl-histone H4 (AcK 5, 8, 12, 16) peptide
Method in brief: as §1

BRD3 = BRD3 (Homo sapiens (Human), UniProt Q15059); assay: TR-FRET in-vitro binding assay for BRD3; settings: 45 nM His-Brd3(20-477), acetyl-histone H4 (AcK 5, 8, 12, 16) peptide
Method in brief: as §1

THP-1 = assay: Cell growth inhibition assay (CellTiter-Glo), THP-1; type: cell-based, human; settings: THP-1 cells, 4 days; for GI50: Homo sapiens, 96 h, half-maximal growth inhibition; for THP-1 TGI: total growth inhibition
Method in brief: as §2

CREBBP = CREBBP (Homo sapiens (Human), UniProt Q92793); assay: AlphaScreen in-vitro binding assay for CREBBP; settings: 324 nM His-CREBBP (1081-1197), acetyl-histone H4 (AcK 5, 8, 12) peptide
Method in brief: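 IC50 values were derived by non-linear regression of percent inhibition across 8 compound concentrations. Protein was His-tagged CREBBP bromodomain (1081-1197), peptide acetyl-histone H4 (AcK 5, 8, 12), in HEPES pH 7.5 buffer. Read-out was AlphaScreen with Ni-chelate acceptor and streptavidin donor beads, 35 min at 30° C then 60 min at RT.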

K-562 = assay: Cell growth inhibition assay (CellTiter-Glo), K-562; type: cell-based, human; settings: K-562 cells, 4 days; for GI50: Homo sapiens, K562, 96 h, half-maximal growth inhibition; for K-562 TGI: total growth inhibition
Method in brief: as §2

Sequence of CREBBP (Q92793 1081-1197): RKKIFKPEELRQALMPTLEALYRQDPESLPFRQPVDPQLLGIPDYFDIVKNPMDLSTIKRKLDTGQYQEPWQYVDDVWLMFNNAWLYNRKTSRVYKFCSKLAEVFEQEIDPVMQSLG
Sequence of BRD3 (Q15059 20-477): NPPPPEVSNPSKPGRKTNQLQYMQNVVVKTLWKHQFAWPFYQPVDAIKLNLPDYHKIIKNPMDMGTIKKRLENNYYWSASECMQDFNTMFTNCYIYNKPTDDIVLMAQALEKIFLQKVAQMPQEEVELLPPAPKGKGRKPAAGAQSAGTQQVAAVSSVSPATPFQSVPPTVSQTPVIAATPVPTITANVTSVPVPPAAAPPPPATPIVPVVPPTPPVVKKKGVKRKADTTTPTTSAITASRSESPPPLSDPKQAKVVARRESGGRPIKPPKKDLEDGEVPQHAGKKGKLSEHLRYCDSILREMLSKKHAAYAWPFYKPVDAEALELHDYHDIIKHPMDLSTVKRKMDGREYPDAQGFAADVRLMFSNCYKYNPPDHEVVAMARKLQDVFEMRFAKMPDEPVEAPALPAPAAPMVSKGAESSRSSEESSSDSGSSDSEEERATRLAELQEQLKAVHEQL
Sequence of BRD2 (P25440 60-472): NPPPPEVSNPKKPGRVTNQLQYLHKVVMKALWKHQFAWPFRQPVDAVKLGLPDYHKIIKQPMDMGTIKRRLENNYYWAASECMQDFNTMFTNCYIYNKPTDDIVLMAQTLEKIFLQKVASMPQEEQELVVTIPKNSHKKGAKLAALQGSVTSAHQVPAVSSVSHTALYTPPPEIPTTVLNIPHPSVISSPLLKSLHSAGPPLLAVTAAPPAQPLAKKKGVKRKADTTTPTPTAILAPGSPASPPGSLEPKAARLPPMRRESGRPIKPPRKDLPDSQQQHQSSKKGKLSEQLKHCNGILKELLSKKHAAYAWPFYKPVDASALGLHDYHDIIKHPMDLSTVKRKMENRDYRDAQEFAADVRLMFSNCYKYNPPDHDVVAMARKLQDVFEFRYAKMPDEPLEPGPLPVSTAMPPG

Row | IC50 (BRD4) [nM] | GI50 (MV-4-11) [nM] | IC50 (BRD2) [nM] | IC50 (BRD3) [nM] | GI50 (THP-1) [nM] | IC50 (CREBBP) [nM] | GI50 (K-562) [nM] | SMILES | MV-4-11 TGI (MV-4-11) [nM] | THP-1 TGI (THP-1) [nM] | K-562 TGI (K-562) [nM]
1 | 40 | 11.2 | 50 | 47 | 19.8 | 1300 | 57.2 | COc1ncccc1-c1cc2c(n1C)C(c1ccc(Cl)cc1)N(c1cc(C)c3nnc(C)n3c1)C2=O (stereo not drawn) [Example 30, 6-(4-chlorophenyl)-5-(3,8-dimethyl-[1,2,4]triazolo[4,3-a]pyridin-6-yl)-2-(2-methoxypyridin-3-yl)-1-methyl-5,6-dihydropyrrolo[3,4-b]pyrrol-4(1H)-one] | 21.3 | 39.05 | >10000
2 | 72 | 74 | 80 | 78 | 86.3 | 940 | 297 | COc1cccc(-c2cc3c(n2C)C(c2ccc(Cl)cc2)N(c2cc(C)c(=O)n(C)c2)C3=O)n1 (stereo not drawn) [Example 59, 6-(4-chlorophenyl)-5-(1,5-dimethyl-6-oxo-1,6-dihydropyridin-3-yl)-2-(6-methoxypyridin-2-yl)-1-methyl-5,6-dihydropyrrolo[3,4-b]pyrrol-4(1H)-one] | 106 | 136 | >10000
3 | 230 | 158 | 196 | 161 | 167 | 4700 | 548 | COc1ccc(C2c3c(ccn3C)C(=O)N2c2cc(C)c(=O)n(C)c2)cc1 (stereo not drawn) [Example 84, 5-(1,5-dimethyl-6-oxo-1,6-dihydropyridin-3-yl)-6-(4-methoxyphenyl)-1-methyl-5,6-dihydropyrrolo[3,4-b]pyrrol-4(1H)-one] | 338.5 | 419.5 | >10000
4 | 30 | 128 | 40 | 47 | 518 | > 37000 | 2040 | Cc1cc(N2C(=O)c3c(C(=O)N(C)C)cn(C)c3C2c2ccc(Cl)cc2)cn2c(C)nnc12 (stereo not drawn) [Example 100, 6-(4-chlorophenyl)-5-(3,8-dimethyl-[1,2,4]triazolo[4,3-a]pyridin-6-yl)-N,N,1-trimethyl-4-oxo-1,4,5,6-tetrahydropyrrolo[3,4-b]pyrrole-3-carboxamide] | 368.5 | 2135 | >10000
5 | 24 | 6.3 | 45 | 25 | 12.1 | 6300 | 47.8 | Cc1cn(C2CN(C)C2)c2c1C(=O)N(c1cc(C)c3nnc(C)n3c1)C2c1ccc(Cl)cc1 (stereo not drawn) [Example 5, 6-(4-chlorophenyl)-5-(3,8-dimethyl-[1,2,4]triazolo[4,3-a]pyridin-6-yl)-3-methyl-1-(1-methylazetidin-3-yl)-5,6-dihydropyrrolo[3,4-b]pyrrol-4(1H)-one] | 13.05 | 36.2 | >10000
6 | 140 | 98.4 | 110 | 82 | 195 | 690 | 698 | Cc1cc(N2C(=O)c3cc(-c4cccn(C)c4=O)n(C)c3C2c2ccc(Cl)cc2)cn(C)c1=O (stereo not drawn) [Example 47, 6-(4-chlorophenyl)-5-(1,5-dimethyl-6-oxo-1,6-dihydropyridin-3-yl)-1-methyl-2-(1-methyl-2-oxo-1,2-dihydropyridin-3-yl)-5,6-dihydropyrrolo[3,4-b]pyrrol-4(1H)-one] | 156 | 351 | >10000
7 | 22 | 14.6 | 23 | 25 | 35.6 | 6600 | 115 | Cc1cn(CCO)c2c1C(=O)N(c1cc(C)c3nnc(C)n3c1)C2c1ccc(Cl)cc1 (stereo not drawn) [Example 14, 6-(4-chlorophenyl)-5-(3,8-dimethyl-[1,2,4]triazolo[4,3-a]pyridin-6-yl)-1-(2-hydroxyethyl)-3-methyl-5,6-dihydropyrrolo[3,4-b]pyrrol-4(1H)-one] | 30.85 | 81.55 | >10000
8 | 330 | 210 | 287 | 190 | 321 | 7600 | 715 | Cn1ccc2c1C(c1ccc(F)cc1)N(c1cc(Cl)c(=O)n(C)c1)C2=O (stereo not drawn) [Example 88, 5-(5-chloro-1-methyl-6-oxo-1,6-dihydropyridin-3-yl)-6-(4-fluorophenyl)-1-methyl-5,6-dihydropyrrolo[3,4-b]pyrrol-4(1H)-one] | 359 | 683 | >10000
9 | 88 | 66.7 | 42 | 85 | 143 | 300 | 404 | Cc1cc(N2C(=O)c3cc(-c4ccc(=O)n(C)c4)n(C4CC4)c3C2c2ccc(Cl)cc2)cn(C)c1=O (stereo not drawn) [Example 67, 6-(4-chlorophenyl)-1-cyclopropyl-5-(1,5-dimethyl-6-oxo-1,6-dihydropyridin-3-yl)-2-(1-methyl-6-oxo-1,6-dihydropyridin-3-yl)-5,6-dihydropyrrolo[3,4-b]pyrrol-4(1H)-one] | 118 | 353 | >10000
10 | 17 | 36.8 | 38 | 23 | 39.2 | 4400 | 156 | Cc1cc(N2C(=O)c3cc(-c4cccn(C)c4=O)[nH]c3C2c2ccc(Cl)cc2)cn2c(C)nnc12 (stereo not drawn) [Example 25, 6-(4-chlorophenyl)-5-(3,8-dimethyl-[1,2,4]triazolo[4,3-a]pyridin-6-yl)-2-(1-methyl-2-oxo-1,2-dihydropyridin-3-yl)-5,6-dihydropyrrolo[3,4-b]pyrrol-4(1H)-one] | 58.15 | 94.9 | >10000
11 | 14 | 3.81 | 14 | 19 | 11.7 | 5000 | 45.2 | Cc1cc(N2C(=O)c3c(C4CC4)cn(C4CN(C)C4)c3C2c2ccc(Cl)cc2)cn2c(C)nnc12 (stereo not drawn) [Example 16, 6-(4-chlorophenyl)-3-cyclopropyl-5-(3,8-dimethyl-[1,2,4]triazolo[4,3-a]pyridin-6-yl)-1-(1-methylazetidin-3-yl)-5,6-dihydropyrrolo[3,4-b]pyrrol-4(1H)-one] | 12.4 | 35.5 | >10000
12 | 78 | 83.9 | 72.5 | 54 | 91.9 | 365 | 326 | COc1ncc(-c2cc3c(n2C)C(c2ccc(Cl)cc2)N(c2cc(Cl)c(=O)n(C)c2)C3=O)cn1 (stereo not drawn) [Example 40, 5-(5-chloro-1-methyl-6-oxo-1,6-dihydropyridin-3-yl)-6-(4-chlorophenyl)-2-(2-methoxypyrimidin-5-yl)-1-methyl-5,6-dihydropyrrolo[3,4-b]pyrrol-4(1H)-one] | 127 | 137 | >10000
